What all share (format): cell-based, human
Experiment [1] relates to p21WAF1, phosphorylated p53, p53 and NEDL1 protein expression in SH-SY5Y cells. The experiment in a line: Expression analysis by Western blotting in cisplatin treated SH-SY5Y cells. The note with it: cisplatin 20 μM, total protein. How it is done: The RT-PCR, Western blotting, immunoprecipitation, luciferase reporter assay and cell fractionation were performed according to the procedure described in Ando et al., J. Biol. Chem., 279: 25549-25561, 2004. Colony formation was performed according to the procedure described in Ozaki et al., Cancer Res., 59: 5902-5907, 1999. Under the same conditions as in Example 1, SH-SY5Y cells were treated with cisplatin and cells were recovered at a prescribed time point, after which the total protein was extracted and the expression of p21^WAF1, phosphorylated p53 (p53 (Ser 15)), p53 and NEDL1 was analyzed by Western blotting. Actin was used as an expression level control.
On the technique in general: A western blot detects proteins with antibodies after separation by electrophoresis.

Experiment [2] relates to NEDL1 gene expression in SH-SY5Y cells. The experiment in a line: Expression analysis by RT-PCR in cisplatin treated SH-SY5Y cells. The settings on record: cisplatin 20 μM, total RNA. How it is done: The RT-PCR, Western blotting, immunoprecipitation, luciferase reporter assay and cell fractionation were performed according to the procedure described in Ando et al., J. Biol. Chem., 279: 25549-25561, 2004. Colony formation was performed according to the procedure described in Ozaki et al., Cancer Res., 59: 5902-5907, 1999.
Under the same conditions as in Example 1, SH-SY5Y cells were treated with cisplatin and cells were recovered at a prescribed time point, after which the total RNA was extracted and expression of the NEDL1, NEDL2, NEDD4, p21^WAF1 and p53 genes was analyzed by RT-PCR. GAPDH was used as an expression level control.

The subject of a further experiment is SH-SY5Y cells. The experiment in a line: Apoptosis of SH-SY5Y cells by cisplatin treatment (TUNEL staining). The settings on record: cisplatin final concentration 20 μM. The procedure: SH-SY5Y cells were cultured in the presence of cisplatin (final concentration: 20 μM). The cells were fixed with paraformaldehyde at prescribed time points after the start of culturing and subjected to TUNEL staining, and the TUNEL-positive cells were counted. […] The extent of cell death by cisplatin was detected.

For the molecule `N.N.[Cl][Pt][Cl]` [cisplatin], in experiment [1], the “Expression of NEDL1 (Western blotting)” value is recorded as “induced”, the “Expression of p21WAF1 (Western blotting)” value was “induced”, the “Expression of p53 (Western blotting)” value is “induced” and the “Expression of phosphorylated p53 (p53 (Ser 15)) (Western blotting)” value is on record as “induced”. In addition, in experiment [2], the “Expression of NEDL1 (RT-PCR)” value is “induced”. For the same molecule, the “cell death (TUNEL-positive cells)” value with SH-SY5Y cells is “detected”.

For the origin of these results see patent US7985556B2, “Method of screening apoptosis accelerating compound or anti-apoptotic compound and method of determining malignancy of neurodegenerative disease” (Hisamitsu Pharmaceutical Co., Inc., priority 2005, dated 2011).
